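1) Cells in 96-well plates. 2) Compound, 48 h, 5 concentrations. 3) Linear interpolation between surrounding doses. 4) Unreached endpoint = highest concentration. The concentration for 50% growth inhibition is given as GI50. TGI is the concentration that stops growth completely.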
Assays:
Assay in all cases: growth of human tumour cells (NCI), 48 h
[1] = test system: 786-0 renal
[2] = test system: A498 renal
[3] = test system: A549 NSCLC
[4] = test system: BT-549 breast
[5] = test system: CAKI-1 renal
[6] = test system: CCRF-CEM leukemia
[7] = test system: COLO 205 colon
[8] = test system: DU-145 prostate
[9] = test system: EKVX NSCLC
[10] = test system: HCC-2998 colon
[11] = test system: HCT-116 colon
[12] = test system: HCT-15 colon
[13] = test system: HL-60(TB) leukemia
[14] = test system: HOP-62 NSCLC
[15] = test system: HOP-92 NSCLC
[16] = test system: HS 578T breast
[17] = test system: HT29 colon
[18] = test system: IGROV1 ovarian
[19] = test system: K-562 leukemia
[20] = test system: KM12 colon
[21] = test system: LOX IMVI melanoma
[22] = test system: M14 melanoma
[23] = test system: MALME-3M melanoma
[24] = test system: MCF7 breast
[25] = test system: MDA-MB-231 breast
[26] = test system: MDA-MB-435
[27] = test system: MOLT-4 leukemia
[28] = test system: NCI-H226 lung
[29] = test system: NCI-H23 lung
[30] = test system: NCI-H460 lung
[31] = test system: NCI/ADR-RES ovarian
[32] = test system: OVCAR-3 ovarian
[33] = test system: OVCAR-4 ovarian
[34] = test system: OVCAR-5 ovarian
[35] = test system: OVCAR-8 ovarian
[36] = test system: PC-3 prostate
[37] = test system: RPMI-8226 leukemia
[38] = test system: RXF 393 renal
[39] = test system: SF-268 CNS
[40] = test system: SF-295 CNS
[41] = test system: SF-539 CNS
[42] = test system: SK-MEL-2 melanoma
[43] = test system: SK-MEL-28 melanoma
[44] = test system: SK-MEL-5 melanoma
[45] = test system: SK-OV-3 ovarian
[46] = test system: SN12C renal
[47] = test system: SNB-19 CNS
[48] = test system: SNB-75 CNS
[49] = test system: SR leukemia
[50] = test system: SW-620 colon
[51] = test system: T-47D breast
[52] = test system: U251 CNS
[53] = test system: UACC-257 melanoma
[54] = test system: UACC-62 melanoma
[55] = test system: UO-31 renal
[56] = test system: ACHN renal
[57] = test system: NCI-H522 lung
[58] = test system: TK-10 renal

SMILES: CCOC(=O)c1cc(C2CCN(Cc3ccccc3)C2=O)c(C(=O)C(=[N+]=[N-])C(C)=O)[nH]1 (stereo not drawn)
- TGI [1]: > 100 µM
- TGI [2]: > 100 µM
- TGI [3]: > 100 µM
- TGI [4]: > 100 µM
- TGI [5]: > 100 µM
- TGI [6]: > 100 µM
- TGI [7]: > 100 µM
- TGI [8]: > 100 µM
- TGI [9]: > 100 µM
- TGI [10]: > 100 µM
- TGI [11]: > 100 µM
- TGI [12]: > 100 µM
- TGI [13]: > 100 µM
- TGI [14]: > 100 µM
- TGI [15]: > 100 µM
- TGI [16]: > 100 µM
- TGI [17]: > 100 µM
- TGI [18]: > 100 µM
- TGI [19]: > 100 µM
- TGI [20]: > 100 µM
- TGI [21]: > 100 µM
- TGI [22]: > 100 µM
- TGI [23]: > 100 µM
- TGI [24]: > 100 µM
- TGI [25]: > 100 µM
- TGI [26]: > 100 µM
- TGI [27]: > 100 µM
- TGI [28]: > 100 µM
- TGI [29]: > 100 µM
- TGI [30]: > 100 µM
- TGI [31]: > 100 µM
- TGI [32]: > 100 µM
- TGI [33]: > 100 µM
- TGI [34]: > 100 µM
- TGI [35]: > 100 µM
- TGI [36]: > 100 µM
- TGI [37]: > 100 µM
- TGI [38]: > 100 µM
- TGI [39]: > 100 µM
- TGI [40]: > 100 µM
- TGI [41]: > 100 µM
- TGI [42]: > 100 µM
- TGI [43]: > 100 µM
- TGI [44]: > 100 µM
- TGI [45]: > 100 µM
- TGI [46]: > 100 µM
- TGI [47]: > 100 µM
- TGI [48]: > 100 µM
- TGI [49]: > 100 µM
- TGI [50]: > 100 µM
- TGI [51]: > 100 µM
- TGI [52]: > 100 µM
- TGI [53]: > 100 µM
- TGI [54]: > 100 µM
- TGI [55]: > 100 µM

SMILES: COc1ccc(-c2cc(/C=C3\C(=O)Nc4ccc(OC)cc43)[nH]n2)cc1
- GI50 [1]: > 100 µM
- TGI [1]: > 100 µM
- GI50 [3]: > 100 µM
- TGI [3]: > 100 µM
- GI50 [56]: > 100 µM
- TGI [56]: > 100 µM
- GI50 [4]: > 100 µM
- TGI [4]: > 100 µM
- GI50 [5]: > 100 µM
- TGI [5]: > 100 µM
- GI50 [6]: > 100 µM
- TGI [6]: > 100 µM
- GI50 [7]: 4.53 µM
- TGI [7]: > 100 µM
- GI50 [8]: > 100 µM
- TGI [8]: > 100 µM
- GI50 [10]: > 100 µM
- TGI [10]: > 100 µM
- GI50 [11]: 9.08 µM
- TGI [11]: > 100 µM
- GI50 [12]: 0.687 µM
- TGI [12]: > 100 µM
- GI50 [13]: 0.821 µM
- TGI [13]: > 100 µM
- GI50 [14]: 10.6 µM
- TGI [14]: > 100 µM
- GI50 [15]: > 100 µM
- TGI [15]: > 100 µM
- GI50 [16]: 16.8 µM
- TGI [16]: > 100 µM
- GI50 [17]: 1.58 µM
- TGI [17]: > 100 µM
- GI50 [18]: > 100 µM
- TGI [18]: > 100 µM
- GI50 [19]: 0.479 µM
- TGI [19]: > 100 µM
- GI50 [20]: 1.62 µM
- TGI [20]: > 100 µM
- GI50 [21]: 14 µM
- TGI [21]: > 100 µM
- GI50 [22]: > 100 µM
- TGI [22]: > 100 µM
- GI50 [23]: > 100 µM
- TGI [23]: > 100 µM
- GI50 [24]: 0.732 µM
- TGI [24]: > 100 µM
- GI50 [25]: > 100 µM
- TGI [25]: > 100 µM
- GI50 [26]: 0.317 µM
- TGI [26]: 26.1 µM
- GI50 [27]: > 100 µM
- TGI [27]: > 100 µM
- GI50 [28]: > 100 µM
- TGI [28]: > 100 µM
- GI50 [29]: > 100 µM
- TGI [29]: > 100 µM
- GI50 [30]: 5.45 µM
- TGI [30]: > 100 µM
- GI50 [57]: 11 µM
- TGI [57]: > 100 µM
- GI50 [31]: 31.8 µM
- TGI [31]: > 100 µM
- GI50 [32]: 68.9 µM
- TGI [32]: > 100 µM
- GI50 [33]: > 100 µM
- TGI [33]: > 100 µM
- GI50 [34]: > 100 µM
- TGI [34]: > 100 µM
- GI50 [35]: 19.5 µM
- TGI [35]: > 100 µM
- GI50 [36]: > 100 µM
- TGI [36]: > 100 µM
- GI50 [37]: > 100 µM
- TGI [37]: > 100 µM
- GI50 [38]: 55 µM
- TGI [38]: > 100 µM
- GI50 [39]: 27.4 µM
- TGI [39]: > 100 µM
- GI50 [40]: 2.89 µM
- TGI [40]: > 100 µM
- GI50 [41]: 6.67 µM
- TGI [41]: > 100 µM
- GI50 [42]: 43.5 µM
- TGI [42]: > 100 µM
- GI50 [43]: > 100 µM
- TGI [43]: > 100 µM
- GI50 [44]: 4.46 µM
- TGI [44]: > 100 µM
- GI50 [45]: 73.2 µM
- TGI [45]: > 100 µM
- GI50 [46]: > 100 µM
- TGI [46]: > 100 µM
- GI50 [47]: 77.2 µM
- TGI [47]: > 100 µM
- GI50 [48]: 3.19 µM
- TGI [48]: 25.5 µM
- GI50 [49]: 0.595 µM
- TGI [49]: > 100 µM
- GI50 [50]: 0.912 µM
- TGI [50]: > 100 µM
- GI50 [51]: > 100 µM
- TGI [51]: > 100 µM
- GI50 [58]: > 100 µM
- TGI [58]: > 100 µM
- GI50 [52]: 31.5 µM
- TGI [52]: > 100 µM
- GI50 [53]: > 100 µM
- TGI [53]: > 100 µM
- GI50 [54]: 6.43 µM
- TGI [54]: > 100 µM
- GI50 [55]: > 100 µM
- TGI [55]: > 100 µM

SMILES: Oc1c(-c2ccccc2)sc2ccccc12
- TGI [1]: 59 µM
- TGI [2]: 88.4 µM
- TGI [3]: 81.4 µM
- TGI [56]: > 100 µM
- TGI [4]: 89.4 µM
- TGI [5]: 13.6 µM
- TGI [6]: 62.5 µM
- TGI [7]: 28.2 µM
- TGI [8]: 59.5 µM
- TGI [9]: 86.6 µM
- TGI [10]: 39 µM
- TGI [11]: 71 µM
- TGI [12]: > 100 µM
- TGI [13]: 45.4 µM
- TGI [14]: 45.8 µM
- TGI [15]: 57.7 µM
- TGI [16]: > 100 µM
- TGI [17]: 81.6 µM
- TGI [18]: > 100 µM
- TGI [19]: 67.5 µM
- TGI [20]: 75.6 µM
- TGI [21]: 32.3 µM
- TGI [22]: 50.6 µM
- TGI [23]: 59.6 µM
- TGI [24]: 65.8 µM
- TGI [25]: 29.1 µM
- TGI [26]: > 100 µM
- TGI [27]: 88.6 µM
- TGI [28]: 64.4 µM
- TGI [29]: 77.5 µM
- TGI [30]: 51.2 µM
- TGI [57]: > 100 µM
- TGI [31]: > 100 µM
- TGI [32]: 36.2 µM
- TGI [33]: > 100 µM
- TGI [34]: 90.3 µM
- TGI [35]: > 100 µM
- TGI [36]: 69.1 µM
- TGI [37]: 43.5 µM
- TGI [38]: 45.1 µM
- TGI [39]: > 100 µM
- TGI [40]: 45.7 µM
- TGI [41]: > 100 µM
- TGI [42]: 41 µM
- TGI [43]: > 100 µM
- TGI [44]: 54.5 µM
- TGI [47]: > 100 µM
- TGI [48]: 52.1 µM
- TGI [49]: 34.9 µM
- TGI [50]: > 100 µM
- TGI [51]: 54.4 µM
- TGI [58]: > 100 µM
- TGI [52]: > 100 µM
- TGI [53]: 98.9 µM
- TGI [54]: > 100 µM
- TGI [55]: 84.6 µM

From PubChem BioAssay (NCI)
